Assay results taken from patent US12558007B2 (priority 2016, dated 2026).

Biological target: acetylcholinesterase enzyme (Homo sapiens, UniProt P22303)
Assay: Electrochemical sensor with acetylthiocholine reservoir in buffer containing acetylcholinesterase; inhibitor added, then sensor moved to fresh buffer
Type: biochemical
Conditions: 20 mM PBS, pH 7.4, 1 U/mL acetylcholinesterase, FIG. 13
Protocol: In this example, a buffer was created to simulate endogenous cholinesterase activity in the interstitial fluid of a test subject. A sensor similar to that described in Example 6 was created with 100 nL of 1 M acetylthiocholine in the reactant reservoir. The sensor was placed in a buffer solution of 20 mM PBS, pH 7.4, and 1 U/mL of acetylcholinesterase enzyme to simulate a test subject. A reversible acetylcholinesterase inhibitor (Neostigmine Bromide) was then added to the buffer solution to simulate an organophosphate. The sensor was then removed from the buffer solution containing the inhibitor and placed in fresh buffer solution.

Chain of acetylcholinesterase enzyme (P22303 32-614, species assumed): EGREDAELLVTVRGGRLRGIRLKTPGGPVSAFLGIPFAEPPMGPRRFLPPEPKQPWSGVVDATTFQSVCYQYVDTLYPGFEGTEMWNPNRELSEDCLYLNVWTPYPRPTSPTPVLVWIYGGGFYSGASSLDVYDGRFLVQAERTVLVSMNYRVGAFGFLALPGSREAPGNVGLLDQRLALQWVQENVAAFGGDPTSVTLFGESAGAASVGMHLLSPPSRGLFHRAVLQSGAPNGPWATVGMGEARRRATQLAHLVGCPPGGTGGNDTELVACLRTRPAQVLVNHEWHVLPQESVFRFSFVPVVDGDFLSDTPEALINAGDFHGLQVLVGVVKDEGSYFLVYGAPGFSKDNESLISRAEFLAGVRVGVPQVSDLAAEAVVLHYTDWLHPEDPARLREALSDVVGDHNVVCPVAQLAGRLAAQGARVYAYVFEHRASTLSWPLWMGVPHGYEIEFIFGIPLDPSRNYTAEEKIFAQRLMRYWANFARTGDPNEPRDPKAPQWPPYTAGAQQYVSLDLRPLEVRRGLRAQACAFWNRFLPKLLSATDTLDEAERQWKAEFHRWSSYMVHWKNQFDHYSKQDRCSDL

`CN(C)C(=O)Oc1cccc([N+](C)(C)C)c1` [Neostigmine Bromide] was tested, and the “sensor signal created by acetylcholinesterase interacting with acetylthiocholine, after addition of the inhibitor” value (100 nL of 1 M acetylthiocholine in reservoir) was “fell off after the addition of the inhibitor” and the “sensor signal after sensor removed from inhibitor solution and placed in fresh buffer (reversibility)” value (fresh buffer) was “the signal rebounded”.
